Data as given in paper PMC10599993, “The PTPN2/PTPN1 inhibitor ABBV-CLS-484 unleashes potent anti-tumour immunity” (Nature, 2023).

What was measured:
PTPN2 = target: T1, PTPN2 (Homo sapiens, UniProt P17706); test: X-ray crystal structure (soak); mobility shift enzyme assay IC50; assay type: biochemical
T1 construct: Met1–Asn314, C-terminal 8× histidine tag (crystal); full-length recombinant (IC50)
From the text: X-ray crystal structure (soak); mobility shift enzyme assay IC50 on PTPN2 | The crystal structure of the PTPN2 protein with AC484 confirmed the formation of several crucial interactions in the active site

ETB = target: T2, ETB (Homo sapiens, UniProt P24530); test: biochemical; design: Safety pharmacology off-target panel at Eurofins, radioligand binding with agonist or antagonist radioligand (Supplementary Table 2); details: agonist radioligand
T2 construct: gene EDNRB
T2 sequence (P24530 whole entry): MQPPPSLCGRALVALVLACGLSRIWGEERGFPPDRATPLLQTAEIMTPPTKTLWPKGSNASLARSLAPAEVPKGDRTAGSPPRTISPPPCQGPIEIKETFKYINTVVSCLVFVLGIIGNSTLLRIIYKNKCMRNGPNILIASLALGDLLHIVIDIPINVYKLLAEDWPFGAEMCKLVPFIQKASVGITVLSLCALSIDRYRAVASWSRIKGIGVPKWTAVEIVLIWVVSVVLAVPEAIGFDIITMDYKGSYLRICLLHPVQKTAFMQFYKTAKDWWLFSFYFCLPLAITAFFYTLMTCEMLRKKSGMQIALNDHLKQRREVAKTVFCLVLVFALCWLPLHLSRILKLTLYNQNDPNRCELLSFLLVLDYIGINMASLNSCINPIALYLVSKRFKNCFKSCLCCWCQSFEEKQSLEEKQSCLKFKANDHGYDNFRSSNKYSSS

a1B (h) = target: T3, a1B (h) (Homo sapiens, UniProt P35368); test: biochemical; design: Safety pharmacology off-target panel at Eurofins, radioligand binding with agonist or antagonist radioligand (Supplementary Table 2); details: antagonist radioligand
T3 construct: gene ADRA1B
T3 sequence (P35368 whole entry): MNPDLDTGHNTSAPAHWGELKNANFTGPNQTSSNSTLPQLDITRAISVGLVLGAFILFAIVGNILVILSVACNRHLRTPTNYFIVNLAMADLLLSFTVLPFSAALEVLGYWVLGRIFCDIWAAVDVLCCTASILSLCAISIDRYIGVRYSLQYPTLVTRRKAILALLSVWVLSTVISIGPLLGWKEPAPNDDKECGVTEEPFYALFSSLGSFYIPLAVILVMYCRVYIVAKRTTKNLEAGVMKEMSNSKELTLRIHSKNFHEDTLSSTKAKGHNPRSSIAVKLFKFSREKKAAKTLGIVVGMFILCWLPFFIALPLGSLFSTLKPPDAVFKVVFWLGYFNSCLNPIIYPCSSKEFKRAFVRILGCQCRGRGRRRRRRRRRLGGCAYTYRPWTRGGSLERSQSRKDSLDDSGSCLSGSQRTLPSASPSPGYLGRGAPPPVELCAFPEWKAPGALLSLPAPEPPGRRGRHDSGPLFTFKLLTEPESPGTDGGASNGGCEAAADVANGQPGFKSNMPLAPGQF

A1 (h) = target: T4, A1 (h) (Homo sapiens, UniProt P30542); test: biochemical; design: Safety pharmacology off-target panel at Eurofins, radioligand binding with agonist or antagonist radioligand (Supplementary Table 2); details: antagonist radioligand
T4 construct: gene ADORA1
T4 sequence (P30542 whole entry): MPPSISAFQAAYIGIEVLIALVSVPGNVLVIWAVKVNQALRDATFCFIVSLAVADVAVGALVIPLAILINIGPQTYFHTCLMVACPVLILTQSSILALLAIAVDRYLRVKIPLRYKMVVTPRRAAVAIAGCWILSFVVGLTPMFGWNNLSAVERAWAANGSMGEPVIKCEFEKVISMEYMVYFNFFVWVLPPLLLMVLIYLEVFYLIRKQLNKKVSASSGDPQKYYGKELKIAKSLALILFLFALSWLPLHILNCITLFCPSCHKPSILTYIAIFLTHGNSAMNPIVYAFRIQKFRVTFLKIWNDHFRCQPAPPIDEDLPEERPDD

GR = target: T5, GR (Homo sapiens, UniProt P04150); test: biochemical; design: Safety pharmacology off-target panel at Eurofins, radioligand binding with agonist or antagonist radioligand (Supplementary Table 2); details: agonist radioligand
T5 construct: gene NR3C1
T5 sequence (P04150 whole entry): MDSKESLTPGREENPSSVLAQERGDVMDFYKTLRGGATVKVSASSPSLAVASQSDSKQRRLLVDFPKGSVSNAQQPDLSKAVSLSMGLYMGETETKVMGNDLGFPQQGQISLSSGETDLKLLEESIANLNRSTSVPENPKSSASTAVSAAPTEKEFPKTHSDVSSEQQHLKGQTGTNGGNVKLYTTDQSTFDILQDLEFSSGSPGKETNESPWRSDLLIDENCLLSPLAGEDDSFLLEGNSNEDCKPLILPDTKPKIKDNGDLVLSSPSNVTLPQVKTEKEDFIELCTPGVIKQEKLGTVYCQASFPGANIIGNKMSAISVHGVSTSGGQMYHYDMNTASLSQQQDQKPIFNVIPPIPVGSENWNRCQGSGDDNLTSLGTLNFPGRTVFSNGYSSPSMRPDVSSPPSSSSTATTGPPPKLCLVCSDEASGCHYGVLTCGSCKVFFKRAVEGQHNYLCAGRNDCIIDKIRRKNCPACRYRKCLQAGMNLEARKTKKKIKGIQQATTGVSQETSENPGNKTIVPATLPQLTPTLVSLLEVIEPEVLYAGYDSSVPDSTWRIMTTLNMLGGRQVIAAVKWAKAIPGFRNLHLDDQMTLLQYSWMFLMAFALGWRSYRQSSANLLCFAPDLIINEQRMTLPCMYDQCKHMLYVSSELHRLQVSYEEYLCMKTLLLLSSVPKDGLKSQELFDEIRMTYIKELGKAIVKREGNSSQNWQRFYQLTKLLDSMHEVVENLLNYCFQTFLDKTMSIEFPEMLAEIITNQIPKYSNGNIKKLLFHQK

T1 sequence (P17706 1-314): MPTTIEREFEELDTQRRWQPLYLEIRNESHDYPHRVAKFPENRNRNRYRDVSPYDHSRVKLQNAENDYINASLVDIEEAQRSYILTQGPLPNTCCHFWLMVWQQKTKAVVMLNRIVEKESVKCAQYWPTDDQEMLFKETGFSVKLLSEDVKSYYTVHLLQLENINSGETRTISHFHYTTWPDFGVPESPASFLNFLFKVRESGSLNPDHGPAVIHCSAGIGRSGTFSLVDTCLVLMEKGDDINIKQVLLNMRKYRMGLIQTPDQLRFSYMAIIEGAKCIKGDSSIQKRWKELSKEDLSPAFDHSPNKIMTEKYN

For `CC(C)CCN[C@@H]1CCc2cc(O)c(N3CC(=O)NS3(=O)=O)c(F)c2C1` [AC484, ABBV-CLS-484], which IC50 (PTPN2) is on record?
The IC50 was 0.0018 µM.

And the AC50 (ETB)?
Its AC50 is > 0.01 mM.

And the AC50 (a1B (h))?
The AC50 was > 0.01 mM.

And the AC50 (A1 (h))?
Its AC50 is > 0.01 mM.

And the AC50 (GR)?
Its AC50 is > 0.01 mM.
